Where a name gives a salt, the structure may show the parent alone.
Target: T1, PI3Kδ (p110δ/p85α) (Homo sapiens, UniProt O00329)
T1 construct: purchased Millipore (Bedford, Mass.)
Experiment: PI3Kδ Scintillation Proximity Assay
Format: biochemical
Conditions: TFA salts of racemates tested; 20 μM PIP2, 20 μM ATP, 4 nM PI3Kδ, 210 min, room temperature
Source text: [γ-^33P]ATP (10 mCi/mL) was purchased from Perkin-Elmer (Waltham, Mass.). Lipid kinase substrate, D-myo-Phosphatidylinositol 4,5-bisphosphate (PtdIns(4,5)P2)D (+)-sn-1,2-di-O-octanoylglyceryl, 3-O-phospho linked (PIP2), CAS 204858-53-7, was purchased from Echelon Biosciences (Salt Lake City, Utah). PI3Kδ (p110δ/p85α) was purchased from Millipore (Bedford, Mass.). ATP, MgCl2, DTT, EDTA, MOPS and CHAPS were purchased from Sigma-Aldrich (St. Louis, Mo.). Wheat Germ Agglutinin (WGA) YSi SPA Scintillation Beads was purchased from GE healthcare life sciences (Piscataway, N.J.). The kinase reaction was conducted in polystyrene 384-well matrix white plate from Thermo Fisher Scientific in a final volume of 25 μL. Inhibitors were first diluted serially in DMSO and added to the plate wells before the addition of other reaction components. The final concentration of DMSO in the assay was 0.5%. The PI3K assays were carried out at room temperature in 20 mM MOPS, pH 6.7, 10 mM MgCl2, 5 mM DTT and CHAPS 0.03%. Reactions were initiated by the addition of ATP, the final reaction mixture consisted of 20 μM PIP2, 20 μM ATP, 0.2 μCi [γ-^33P] ATP, 4 nM PI3Kδ. Reactions were incubated for 210 min and terminated by the addition of 40 μL SPA beads suspended in quench buffer: 150 mM potassium phosphate pH 8.0, 20% glycerol. 25 mM EDTA, 400 μM ATP. The final concentration of SPA beads was 1.0 mg/mL After the plate sealing, plates were shaken overnight at room temperature and centrifuged at 1800 rpm for 10 minutes, the radioactivity of the product was determined by scintillation counting on Topcount (Perkin-Elmer). IC50 determination was performed by fitting the curve of percent control activity versus the log of the inhibitor concentration using the GraphPad Prism 3.0 software. See Table 1 for data related to compounds of the invention (TFA salts of racemates of each of the compounds were tested).

T1 sequence (O00329 whole entry): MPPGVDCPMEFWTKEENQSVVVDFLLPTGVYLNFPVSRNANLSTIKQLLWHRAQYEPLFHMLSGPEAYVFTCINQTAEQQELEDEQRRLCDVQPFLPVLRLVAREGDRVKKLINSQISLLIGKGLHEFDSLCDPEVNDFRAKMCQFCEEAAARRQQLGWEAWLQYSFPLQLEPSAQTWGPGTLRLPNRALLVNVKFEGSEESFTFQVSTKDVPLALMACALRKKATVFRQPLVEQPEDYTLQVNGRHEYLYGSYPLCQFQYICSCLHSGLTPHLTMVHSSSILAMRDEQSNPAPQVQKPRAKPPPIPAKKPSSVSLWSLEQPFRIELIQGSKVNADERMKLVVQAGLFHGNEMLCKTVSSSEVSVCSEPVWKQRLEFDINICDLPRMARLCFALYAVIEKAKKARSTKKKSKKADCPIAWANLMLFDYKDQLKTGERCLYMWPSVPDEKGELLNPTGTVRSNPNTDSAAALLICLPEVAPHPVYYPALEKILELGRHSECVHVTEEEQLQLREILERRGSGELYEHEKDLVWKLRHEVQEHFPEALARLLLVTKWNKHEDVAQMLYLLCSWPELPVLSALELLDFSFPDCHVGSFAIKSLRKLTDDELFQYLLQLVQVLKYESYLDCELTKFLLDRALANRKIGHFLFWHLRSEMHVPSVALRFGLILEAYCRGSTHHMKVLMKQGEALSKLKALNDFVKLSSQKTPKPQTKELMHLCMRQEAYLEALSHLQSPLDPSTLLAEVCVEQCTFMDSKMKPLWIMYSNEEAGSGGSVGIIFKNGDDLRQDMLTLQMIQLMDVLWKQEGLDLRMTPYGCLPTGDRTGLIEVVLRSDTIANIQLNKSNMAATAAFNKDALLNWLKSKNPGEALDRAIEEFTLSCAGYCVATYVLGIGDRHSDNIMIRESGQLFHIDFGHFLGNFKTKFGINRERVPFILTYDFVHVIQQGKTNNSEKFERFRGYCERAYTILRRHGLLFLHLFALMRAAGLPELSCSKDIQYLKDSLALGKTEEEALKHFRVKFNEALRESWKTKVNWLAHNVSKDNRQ
T1 sequence (P27986 whole entry partner): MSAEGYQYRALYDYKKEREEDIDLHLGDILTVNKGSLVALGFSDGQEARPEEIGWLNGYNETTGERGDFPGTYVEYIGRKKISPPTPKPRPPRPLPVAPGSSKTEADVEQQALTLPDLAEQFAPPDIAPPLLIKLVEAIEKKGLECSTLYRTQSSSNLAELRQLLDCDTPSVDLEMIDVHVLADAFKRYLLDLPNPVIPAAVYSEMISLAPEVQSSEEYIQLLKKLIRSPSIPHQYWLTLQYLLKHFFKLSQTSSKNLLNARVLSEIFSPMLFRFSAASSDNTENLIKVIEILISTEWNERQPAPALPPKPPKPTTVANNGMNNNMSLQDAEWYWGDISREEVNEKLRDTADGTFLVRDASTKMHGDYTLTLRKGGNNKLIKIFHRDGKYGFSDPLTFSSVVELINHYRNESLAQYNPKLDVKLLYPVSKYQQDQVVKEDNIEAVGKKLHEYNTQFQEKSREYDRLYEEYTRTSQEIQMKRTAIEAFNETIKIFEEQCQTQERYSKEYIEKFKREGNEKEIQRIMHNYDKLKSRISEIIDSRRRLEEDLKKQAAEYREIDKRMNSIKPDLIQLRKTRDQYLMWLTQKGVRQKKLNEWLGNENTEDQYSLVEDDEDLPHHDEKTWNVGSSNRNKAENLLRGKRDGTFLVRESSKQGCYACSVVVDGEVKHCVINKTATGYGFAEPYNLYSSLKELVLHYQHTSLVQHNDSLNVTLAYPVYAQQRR

SMILES	IC50 [nM]
CC(Nc1ncnc2[nH]cnc12)c1cc2c(Cl)cccc2n1-c1cccc(F)c1 (racemic) [Example 2, N-{1-[4-Chloro-1-(3-fluorophenyl)-1H-indol-2-yl]ethyl}-9H-purin-6-amine trifluoroacetate]	≤ 50
CC(Nc1ncnc2[nH]cnc12)c1c(Cl)c2ccccc2n1-c1cccc(F)c1 (racemic) [Example 3, N-{1-[3-Chloro-1-(3-fluorophenyl)-1H-indol-2-yl]ethyl}-9H-purin-6-amine trifluoroacetate]	≤ 50
CC(Nc1ncnc2[nH]cnc12)c1c(Cl)c2c(Cl)cccc2n1-c1cccc(F)c1 (racemic) [Example 4, N-{1-[3,4-Dichloro-1-(3-fluorophenyl)-1H-indol-2-yl]ethyl}-9H-purin-6-amine trifluoroacetate]	50 to 100
CC(Nc1ncnc2[nH]cnc12)c1c(Br)c2ccccc2n1-c1cccc(F)c1 (racemic) [Example 5, N-{1-[3-Bromo-1-(3-fluorophenyl)-1H-indol-2-yl]ethyl}-9H-purin-6-amine trifluoroacetate]	50 to 100
CC(Nc1ncnc2[nH]cnc12)c1c(Cl)c2cccnc2n1-c1cccc(F)c1 (racemic) [Example 6, N-{1-[3-Chloro-1-(3-fluorophenyl)-1H-pyrrolo[2,3-b]pyridin-2-yl]ethyl}-9H-purin-6-amine bis(trifluoroacetate)]	≤ 50
CC(Nc1ncnc2[nH]cnc12)c1cc2cccnc2n1-c1cccc(F)c1 (racemic) [Example 7, N-(1-(1-(3-Fluorophenyl)-1H-pyrrolo[2,3-b]pyridin-2-yl)ethyl)-9H-purin-6-amine bis(2,2,2-trifluoroacetate)]	250 to 750
CC(Nc1ncnc2[nH]cnc12)c1c(C#N)c2ccccc2n1-c1cccc(F)c1 (racemic) [Example 9, 2-(1-(9H-Purin-6-ylamino)ethyl)-1-(3-fluorophenyl)-1H-indole-3-carbonitrile 2,2,2-trifluoroacetate]	≤ 50

The next lines start with the values.

IC50 [nM]	SMILES
100 to 250	CC(Nc1ncnc2[nH]cnc12)c1cc2ccc(Cl)cc2n1-c1cccc(F)c1 (racemic) [Example 1, N-{1-[6-Chloro-1-(3-fluorophenyl)-1H-indol-2-yl]ethyl}-9H-purin-6-amine trifluoroacetate]
≤ 50	Cc1c(C(C)Nc2ncnc3[nH]cnc23)n(-c2cccc(F)c2)c2ccccc12 (racemic) [Example 8, N-{1-[1-(3-Fluorophenyl)-3-methyl-1H-indol-2-yl]ethyl}-9H-purin-6-amine trifluoroacetate]
100 to 250	CC(Nc1ncnc2[nH]cnc12)c1c(F)c2cccnc2n1-c1cccc(F)c1 (racemic) [Example 10, N-(1-(3-Fluoro-1-(3-fluorophenyl)-1H-pyrrolo[2,3-b]pyridin-2-yl)ethyl)-9H-purin-6-amine bis(2,2,2-trifluoroacetate)]
